Data reported in patent US12344588B2, “Sulfonamide compounds and use thereof” (Taiho Pharmaceutical Co., Ltd., priority 2017, dated 2025).
≈ marks a conversion by molar mass, not a printed value.

What was measured:
Assay type in all cases: physicochemical
[1] = Hygroscopicity: moisture adsorption/desorption test; settings: relative humidity of 95%, 25° C.
Experimental: The moisture adsorption/desorption test was carried out according to the following conditions.
Approximately 10 to 15 mg of the sample was filled in a dedicated quartz holder, and the weight of each sample at each humidity was continuously measured and recorded under the following conditions.

[2] = Solubility test; settings: for solubility at 2 h: 37 °C, thermodynamic from solid; for Solubility: 2 hours
Experimental: About 15 mg of the exemplary sample of the present invention was added to 1 mL of each solvent and was swelled at 37° C. for 2 hours under light resistant condition. After centrifugation, each supernatant was filtered, and 0.7 mL of a mixture of water and acetonitrile (1:1) was added to 0.1 mL of the filtrate.
Following of mobile phase: Control the gradient by mixing the mobile phase A and B as directed in the following table below • Flow rate: 1.0 mL per minutes • Time span of measurement: For 12 minutes after injection

[3] = Stability test, optical purity by chiral HPLC; settings: 40° C./75% RH (closed and open condition), 24 hours
Experimental: The optical purity was also measured by the following HPLC condition • Detector: UV at 240 nm • Column: […] IE (4.6×250 mm, 5 μm)/Daicel corp. • Column temperature: 40° C. • Mobile phase: n-hexane/ethanol/ethanolamine/acetic acid (65:35:0.5:0.2) • Flow rate: 1.0 mL/min • Injection: 5 μL • Sample temperature: 5° C. • Time span of measurement: 40 min Limit of Quantitation (LOQ): • Compound—RR,RS,SS: 0.05%
The optical purity was measured also with added 0.2% optical isomer.
The solid stability of the exemplary sample of the present invention and the free form obtained above was tested before and after the sample was stored at 40° C./75% RH (closed and open condition) for 24 hours.

hygroscopicity: mass change in moisture adsorption/desorption test ([1]; listed as free form)	solubility at 2 h ([2]; 50 mM acetate buffer, pH 4, aqueous buffer, Acetate buffer (50 mM, pH 4.0))	solubility at 2 h ([2]; 0.5% HPMC, aqueous with cosolvent or surfactant or cyclodextrin)	solubility at 2 h ([2]; First fluid for dissolution test, pH 1.2, simulated gastric fluid, pH 1.2, 37° C.)	solubility at 2 h ([2]; Second fluid for dissolution test, pH 6.8, aqueous buffer, pH 6.8, 37° C.)	solubility at 2 h ([2]; water)	change in the optical purity after storage [3]	hygroscopicity: mass change in moisture adsorption/desorption test ([1]; listed as obtained product)	Solubility ([2]; First fluid for dissolution test, pH 1.2, 37° C.)	Solubility ([2]; water, 37° C.)	SMILES
about 3.8%	250 µg/mL (≈ 518 µM)	190 µg/mL (≈ 393 µM)	230 µg/mL (≈ 476 µM)	800 µg/mL (≈ 1660 µM)	230 µg/mL (≈ 476 µM)	No significant change				Cc1ccc(F)c([C@@H](C)[C@H](NS(=O)(=O)c2ccc(Cl)cc2C(N)=O)c2n[nH]c(=O)o2)c1C [Comparative Example, 5-chloro-2-(N-((1S,2R)-2-(6-fluoro-2,3-dimethylphenyl)-1-(5-oxo-4,5-dihydro-1,3,4-oxadiazol-2-yl)propyl)sulfamoyl)benzamide]
						No significant change	about 0.1%	230 µg/mL (≈ 476 µM)	230 µg/mL (≈ 476 µM)	Cc1ccc(F)c([C@@H](C)[C@H](NS(=O)(=O)c2ccc(Cl)cc2C(N)=O)c2n[nH]c(=O)o2)c1C [Exemplary Sample, 5-chloro-2-(N-((1S,2R)-2-(6-fluoro-2,3-dimethylphenyl)-1-(5-oxo-4,5-dihydro-1,3,4-oxadiazol-2-yl)propyl)sulfamoyl)benzamide]
